How the values were obtained:
Type in all cases: biochemical
TYRO3 = target: T1, TYRO3 (Homo sapiens, UniProt Q06418); test: Kinome profiling TYRO3; settings: read-out: Inhibitory activity TYRO3; for inhibition at 0.1 µM: 100 nM
T1 sequence (Q06418 41-890): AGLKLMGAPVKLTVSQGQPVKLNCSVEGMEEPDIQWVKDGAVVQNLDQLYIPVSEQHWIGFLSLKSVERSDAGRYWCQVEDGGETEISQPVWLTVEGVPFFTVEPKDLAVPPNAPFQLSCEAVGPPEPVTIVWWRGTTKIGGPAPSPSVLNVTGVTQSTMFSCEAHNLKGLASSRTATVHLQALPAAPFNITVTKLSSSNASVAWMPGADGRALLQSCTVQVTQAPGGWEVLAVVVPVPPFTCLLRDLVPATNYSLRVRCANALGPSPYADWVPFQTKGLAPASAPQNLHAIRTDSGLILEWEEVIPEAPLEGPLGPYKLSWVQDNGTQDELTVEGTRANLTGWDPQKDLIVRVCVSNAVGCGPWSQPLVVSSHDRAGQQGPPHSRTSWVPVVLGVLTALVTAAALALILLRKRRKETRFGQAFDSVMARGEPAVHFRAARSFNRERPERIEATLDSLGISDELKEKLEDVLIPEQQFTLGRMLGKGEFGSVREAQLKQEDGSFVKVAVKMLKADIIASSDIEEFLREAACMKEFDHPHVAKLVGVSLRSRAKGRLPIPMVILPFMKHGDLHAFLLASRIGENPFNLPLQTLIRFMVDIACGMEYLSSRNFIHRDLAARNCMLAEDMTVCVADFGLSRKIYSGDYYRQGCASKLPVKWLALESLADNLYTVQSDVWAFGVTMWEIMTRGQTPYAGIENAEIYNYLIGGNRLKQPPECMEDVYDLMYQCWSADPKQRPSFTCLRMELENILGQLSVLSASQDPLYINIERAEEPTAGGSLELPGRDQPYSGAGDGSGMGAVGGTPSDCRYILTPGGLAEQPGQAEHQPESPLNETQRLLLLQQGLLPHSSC
Method: (§1) . The kinome-wide selectivity was determined following the methods previously reported by Mohedas et al., ACS Chem Biol 2013, 8, 1291-1302 and Sanvitale et al., PLoS One 2013, 8, e62721.

IKK-ε = target: T2, IKK-ε (Homo sapiens, UniProt Q14164); test: Kinome profiling IKK-ε; settings: read-out: Inhibitory activity IKK-ε; for inhibition at 0.1 µM: 100 nM
T2 sequence (Q14164 1-716): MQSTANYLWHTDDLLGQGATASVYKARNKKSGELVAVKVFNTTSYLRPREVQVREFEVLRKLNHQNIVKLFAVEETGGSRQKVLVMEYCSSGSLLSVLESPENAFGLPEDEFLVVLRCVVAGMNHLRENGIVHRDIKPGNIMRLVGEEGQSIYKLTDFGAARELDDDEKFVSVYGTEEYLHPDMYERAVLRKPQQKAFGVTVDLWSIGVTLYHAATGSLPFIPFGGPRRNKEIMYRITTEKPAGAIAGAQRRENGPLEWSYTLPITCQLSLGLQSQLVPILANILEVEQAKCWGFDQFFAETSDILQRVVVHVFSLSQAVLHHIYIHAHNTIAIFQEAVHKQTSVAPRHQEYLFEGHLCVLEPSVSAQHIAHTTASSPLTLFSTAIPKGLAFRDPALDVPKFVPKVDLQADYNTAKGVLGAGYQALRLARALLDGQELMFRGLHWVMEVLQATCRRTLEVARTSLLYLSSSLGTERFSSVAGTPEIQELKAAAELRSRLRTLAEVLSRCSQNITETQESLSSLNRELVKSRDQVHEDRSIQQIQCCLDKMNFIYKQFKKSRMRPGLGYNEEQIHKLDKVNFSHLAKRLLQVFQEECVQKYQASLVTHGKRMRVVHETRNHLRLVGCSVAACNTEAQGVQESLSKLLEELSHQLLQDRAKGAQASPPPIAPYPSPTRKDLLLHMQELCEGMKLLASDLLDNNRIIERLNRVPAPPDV
Method: as §1

DYRK1A = DYRK1A (Homo sapiens, UniProt Q13627); test: Kinome profiling DYRK1A; settings: read-out: Inhibitory activity DYRK1A; for inhibition at 0.1 µM: 100 nM
Method: as §1

BRSK2 = target: T3, BRSK2 (Homo sapiens, UniProt Q8IWQ3); test: Kinome profiling BRSK2; settings: read-out: Inhibitory activity BRSK2; for inhibition at 0.1 µM: 100 nM
T3 sequence (Q8IWQ3 1-736): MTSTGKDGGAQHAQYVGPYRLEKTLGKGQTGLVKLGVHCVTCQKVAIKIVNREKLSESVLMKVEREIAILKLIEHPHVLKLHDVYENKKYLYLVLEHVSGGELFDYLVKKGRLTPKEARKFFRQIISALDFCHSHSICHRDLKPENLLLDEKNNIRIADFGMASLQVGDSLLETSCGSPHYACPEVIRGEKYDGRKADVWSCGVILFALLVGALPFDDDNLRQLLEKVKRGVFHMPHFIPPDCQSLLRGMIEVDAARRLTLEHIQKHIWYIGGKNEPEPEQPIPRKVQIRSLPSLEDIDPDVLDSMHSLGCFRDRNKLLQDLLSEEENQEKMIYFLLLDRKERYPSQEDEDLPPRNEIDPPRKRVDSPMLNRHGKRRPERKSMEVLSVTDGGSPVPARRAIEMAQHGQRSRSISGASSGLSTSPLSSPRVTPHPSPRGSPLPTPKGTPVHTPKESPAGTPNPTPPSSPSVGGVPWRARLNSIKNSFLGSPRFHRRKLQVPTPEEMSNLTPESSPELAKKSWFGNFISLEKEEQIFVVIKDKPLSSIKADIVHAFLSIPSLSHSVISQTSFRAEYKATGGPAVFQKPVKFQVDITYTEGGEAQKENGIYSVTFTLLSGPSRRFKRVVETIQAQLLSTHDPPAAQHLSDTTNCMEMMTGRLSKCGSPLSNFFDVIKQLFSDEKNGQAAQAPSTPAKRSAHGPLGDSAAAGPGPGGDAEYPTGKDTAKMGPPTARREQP
Method: as §1

CDK3/cyclinE = CDK3/cyclinE (Homo sapiens, UniProt Q00526); test: Kinome profiling CDK3/cyclinE; settings: read-out: Inhibitory activity CDK3/cyclinE; for inhibition at 0.1 µM: 100 nM
Sequence of CDK3/cyclinE (Q00526 whole entry): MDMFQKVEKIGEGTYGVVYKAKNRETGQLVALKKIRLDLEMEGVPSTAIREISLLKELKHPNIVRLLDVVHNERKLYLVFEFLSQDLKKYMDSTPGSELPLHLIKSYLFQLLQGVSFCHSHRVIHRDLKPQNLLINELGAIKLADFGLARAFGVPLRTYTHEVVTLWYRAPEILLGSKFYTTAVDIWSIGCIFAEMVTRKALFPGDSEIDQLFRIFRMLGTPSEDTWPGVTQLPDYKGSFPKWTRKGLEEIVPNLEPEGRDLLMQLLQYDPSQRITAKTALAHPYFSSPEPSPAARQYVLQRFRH
Sequence of CDK3/cyclinE (P24864 whole entry partner): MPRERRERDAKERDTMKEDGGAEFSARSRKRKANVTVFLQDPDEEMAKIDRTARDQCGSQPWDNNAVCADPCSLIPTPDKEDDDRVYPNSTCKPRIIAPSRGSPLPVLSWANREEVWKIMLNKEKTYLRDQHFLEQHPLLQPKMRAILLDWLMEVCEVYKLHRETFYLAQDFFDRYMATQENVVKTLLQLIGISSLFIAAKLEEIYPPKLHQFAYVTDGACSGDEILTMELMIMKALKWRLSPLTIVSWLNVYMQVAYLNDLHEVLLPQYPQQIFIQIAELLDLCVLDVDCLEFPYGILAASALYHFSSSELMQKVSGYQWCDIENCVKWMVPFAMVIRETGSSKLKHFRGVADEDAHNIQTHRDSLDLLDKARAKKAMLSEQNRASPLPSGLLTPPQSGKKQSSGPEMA
Method: as §1

CLK2 = CLK2 (Homo sapiens, UniProt P49760); test: Kinome profiling CLK2; settings: read-out: Inhibitory activity CLK2; for inhibition at 0.1 µM: 100 nM
Sequence of CLK2 (P49760 whole entry): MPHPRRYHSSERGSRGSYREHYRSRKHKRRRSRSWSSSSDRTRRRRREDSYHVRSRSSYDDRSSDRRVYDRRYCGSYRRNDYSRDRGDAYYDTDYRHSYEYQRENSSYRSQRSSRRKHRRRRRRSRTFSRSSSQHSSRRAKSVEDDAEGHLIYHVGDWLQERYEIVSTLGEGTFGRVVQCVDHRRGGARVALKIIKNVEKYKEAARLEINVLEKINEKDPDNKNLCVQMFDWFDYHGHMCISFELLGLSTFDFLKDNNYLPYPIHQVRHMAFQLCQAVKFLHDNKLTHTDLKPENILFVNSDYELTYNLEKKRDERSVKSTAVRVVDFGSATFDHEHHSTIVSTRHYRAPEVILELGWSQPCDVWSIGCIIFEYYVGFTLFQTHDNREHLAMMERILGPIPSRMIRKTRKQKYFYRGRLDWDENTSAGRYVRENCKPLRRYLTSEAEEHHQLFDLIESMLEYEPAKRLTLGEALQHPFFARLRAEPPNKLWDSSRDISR
Method: as §1

| Compound | inhibition at 0.1 µM (TYRO3) [%] | inhibition at 1 µM (TYRO3) [%] | inhibition at 0.1 µM (IKK-ε) [%] | inhibition at 1 µM (IKK-ε) [%] | inhibition at 0.1 µM (DYRK1A) [%] | inhibition at 1 µM (DYRK1A) [%] | inhibition at 0.1 µM (BRSK2) [%] | inhibition at 1 µM (BRSK2) [%] | inhibition at 0.1 µM (CDK3/cyclinE) [%] | inhibition at 1 µM (CDK3/cyclinE) [%] | inhibition at 0.1 µM (CLK2) [%] | inhibition at 1 µM (CLK2) [%] |
| --- | --- | --- | --- | --- | --- | --- | --- | --- | --- | --- | --- | --- |
| COc1cc(-c2cc(-c3ccc(N4CCNCC4)cc3)cnc2C)cc(OC)c1OC [Compound 10, 1-(4-(6-methyl-5-(3,4,5-trimethoxyphenyl)pyridin-3-yl)phenyl)piperazine] | 4 | 21 | 2 | 2 | 3 | 5 | 2 | 1 | 2 | 2 | 2 | 2 |
| COc1cc(-c2cc(-c3ccc(N4CCNCC4)cc3)cnc2N)cc(OC)c1OC [Compound 15, 5-(4-(piperazin-1-yl)phenyl)-3-(3,4,5-trimethoxyphenyl)pyridin-2-amine] | 23 | 75 | 1 | 20 | 2 | 5 | 1 | 2 | 0 | 0 | 1 | -1 |

Reference: patent US20170190705A1, “Compositions and Methods for Inhibiting BMP” (THE BRIGHAM AND WOMAN'S HOSPITAL, INC., priority 2014, published 2017)
